Laboratory results published in ChEMBL document CHEMBL4321867, “Optimization of LpxC Inhibitor Lead Compounds Focusing on Efficacy and Formulation for High Dose Intravenous Administration” (J Med Chem, 2020).
Values after ≈ are worked out from the molar mass of the structure shown.

How the values were obtained:
in vivo = settings: mouse, sc, 150 mg/kg
physchem [1] = settings: n-octanol/phosphate buffer, pH 7.4
in vitro [2] = settings: rat, liver microsomes
physchem [3] = settings: buffer, pH 9
in vitro [4] = settings: rat, hepatocytes
physchem [5] = settings: buffer, pH 7
Klebsiella pneumoniae = assay: microbe, parasite or virus in culture; settings: T6474
Escherichia coli = assay: microbe, parasite or virus in culture; settings: ATCC 25922
Pseudomonas aeruginosa = assay: microbe, parasite or virus in culture; settings: ATCC 27853
physchem [6] = settings: buffer, pH 4
[7] = test system: T1, UDP-3-O-acyl-N-acetylglucosamine deacetylase (Pseudomonas aeruginosa (strain ATCC 15692 / PAO1 / 1C / PRS 101 / LMG12228)), P47205 [C40S]; settings: 25 uM
T1 sequence (whole entry): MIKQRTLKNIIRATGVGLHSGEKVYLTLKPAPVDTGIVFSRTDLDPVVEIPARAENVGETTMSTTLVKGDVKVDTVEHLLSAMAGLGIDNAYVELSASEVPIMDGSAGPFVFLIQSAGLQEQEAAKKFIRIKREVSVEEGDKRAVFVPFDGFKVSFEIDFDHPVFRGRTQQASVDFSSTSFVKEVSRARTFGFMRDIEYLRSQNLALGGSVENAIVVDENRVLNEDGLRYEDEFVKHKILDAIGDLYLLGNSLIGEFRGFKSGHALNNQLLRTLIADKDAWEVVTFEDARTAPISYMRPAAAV

physchem [8] = assay: physchem
[9] = test system: T2, UDP-3-O-acyl-N-acetylglucosamine deacetylase (Escherichia coli K-12), P0A725 [C125S]; settings: 25 uM
T2 sequence (whole entry): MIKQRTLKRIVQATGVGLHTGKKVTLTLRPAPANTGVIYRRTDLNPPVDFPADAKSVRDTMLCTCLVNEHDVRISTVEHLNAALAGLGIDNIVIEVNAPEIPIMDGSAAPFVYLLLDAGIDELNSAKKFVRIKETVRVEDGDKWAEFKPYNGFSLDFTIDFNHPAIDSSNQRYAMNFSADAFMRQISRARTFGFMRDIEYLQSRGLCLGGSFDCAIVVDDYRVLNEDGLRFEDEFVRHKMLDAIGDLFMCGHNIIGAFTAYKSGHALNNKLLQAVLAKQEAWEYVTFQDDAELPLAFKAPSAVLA

SMILES	AUC(0-t) at 24 h (in vivo)	logD (physchem [1])	microsomal CLint at 1 µM (in vitro [2])	solubility at 24 h (physchem [3])	hepatocyte CLint at 1 µM (in vitro [4])	solubility at 24 h (physchem [5])	MIC (Klebsiella pneumoniae)	MIC (Escherichia coli)	MIC (Pseudomonas aeruginosa)	solubility at 24 h (physchem [6])	deltaTm [7]	pKa (physchem [8])	deltaTm [9]
C[C@@](CCN1Cc2cc(C#CC#CC3(CO)CC3)cn2C1=O)(C(=O)NO)S(C)(=O)=O	89500 ng·h/mL	0.9	24 µL/min/mg	553 µg/mL (≈ 1280 µM)	8.5 µL/min/1e6 cells	384 µg/mL (≈ 886 µM)	1 µg/mL (≈ 2.31 µM)	0.25 µg/mL (≈ 0.577 µM)	0.5 µg/mL (≈ 1.15 µM)	149 µg/mL (≈ 344 µM)			
C[C@@](CCN1Cc2cc(C#CC#CC3CN(CC(F)F)C3)cn2C1=O)(C(=O)NO)S(C)(=O)=O		1.4		> 820 µg/mL		209 µg/mL (≈ 433 µM)	0.25 µg/mL (≈ 0.518 µM)	0.06 µg/mL (≈ 0.124 µM)	1 µg/mL (≈ 2.07 µM)	> 820 µg/mL	13.2 K	5.2	10.6 K
CCN1CC(C#CC#Cc2cc3n(c2)C(=O)N(CC[C@](C)(C(=O)NO)S(C)(=O)=O)C3)C1		0.6		> 750 µg/mL		> 750 µg/mL	0.5 µg/mL (≈ 1.12 µM)	0.25 µg/mL (≈ 0.56 µM)	0.5 µg/mL (≈ 1.12 µM)	> 750 µg/mL	10.4 K	8.5	9.3 K
C[C@@](CCN1Cc2cc(C#CC#CC3(F)CNC3)cn2C1=O)(C(=O)NO)S(C)(=O)=O		0.3		279 µg/mL (≈ 639 µM)		175 µg/mL (≈ 401 µM)	2 µg/mL (≈ 4.58 µM)	1 µg/mL (≈ 2.29 µM)	2 µg/mL (≈ 4.58 µM)	> 740 µg/mL	10 K	8	7.1 K
C[C@@](CCN1Cc2cc(C#CC#C[C@H]3C[C@]3(F)CO)cn2C1=O)(C(=O)NO)S(C)(=O)=O		0.9	16 µL/min/mg	> 760 µg/mL	13 µL/min/1e6 cells	613 µg/mL (≈ 1360 µM)	0.5 µg/mL (≈ 1.11 µM)	0.25 µg/mL (≈ 0.554 µM)	0.5 µg/mL (≈ 1.11 µM)	354 µg/mL (≈ 784 µM)			
C[C@@](CCN1Cc2cc(C#CC#C[C@@H]3C[C@H]3[C@H](O)CO)cn2C1=O)(C(=O)NO)S(C)(=O)=O		0.5	< 10 µL/min/mg	> 780 µg/mL	10 µL/min/1e6 cells	> 780 µg/mL	1 µg/mL (≈ 2.16 µM)	0.25 µg/mL (≈ 0.539 µM)	0.5 µg/mL (≈ 1.08 µM)	618 µg/mL (≈ 1330 µM)			
C[C@@](CCN1Cc2cc(C#CC#C[C@@H]3C[C@H]3CO)cn2C1=O)(C(=O)NO)S(C)(=O)=O			< 10 µL/min/mg	552 µg/mL (≈ 1270 µM)	13.4 µL/min/1e6 cells	602 µg/mL (≈ 1390 µM)	0.25 µg/mL (≈ 0.577 µM)	0.12 µg/mL (≈ 0.277 µM)	0.5 µg/mL (≈ 1.15 µM)	600 µg/mL (≈ 1380 µM)			
C[C@@](CCN1Cc2cc(C#CC#CC3CN(C4COC4)C3)cn2C1=O)(C(=O)NO)S(C)(=O)=O		0.5		681 µg/mL (≈ 1440 µM)		128 µg/mL (≈ 270 µM)	0.5 µg/mL (≈ 1.05 µM)	0.25 µg/mL (≈ 0.527 µM)	1 µg/mL (≈ 2.11 µM)	> 800 µg/mL	12.6 K	5.5	10.5 K
CNC1(C#CC#Cc2cc3n(c2)C(=O)N(CC[C@](C)(C(=O)NO)S(C)(=O)=O)C3)CC1		1.4		486 µg/mL (≈ 1120 µM)		182 µg/mL (≈ 421 µM)	0.25 µg/mL (≈ 0.578 µM)	0.12 µg/mL (≈ 0.277 µM)	0.5 µg/mL (≈ 1.16 µM)	551 µg/mL (≈ 1270 µM)	12.2 K	6.5	10.6 K
CN1CC(F)(C#CC#Cc2cc3n(c2)C(=O)N(CC[C@](C)(C(=O)NO)S(C)(=O)=O)C3)C1		1.1		> 760 µg/mL		219 µg/mL (≈ 486 µM)	0.5 µg/mL (≈ 1.11 µM)	0.12 µg/mL (≈ 0.266 µM)	2 µg/mL (≈ 4.44 µM)	> 760 µg/mL	11.6 K	6.7	8.1 K
C[C@@](CCN1Cc2cc(C#CC#CCN3CCC(O)CC3)cn2C1=O)(C(=O)NO)S(C)(=O)=O		0.4		> 810 µg/mL		> 810 µg/mL	2 µg/mL (≈ 4.2 µM)	1 µg/mL (≈ 2.1 µM)	1 µg/mL (≈ 2.1 µM)	> 810 µg/mL	11.5 K	6.5	9.5 K
